Source: PMC5740082, “Identification of a CARM1 Inhibitor with Potent In Vitro and In Vivo Activity in Preclinical Models of Multiple Myeloma” (Scientific Reports, 2017)
Where two headings read alike, the source gives them in different places.

Tests used:
CARM1 = biological target: T1, CARM1 (Homo sapiens, UniProt Q86X55); assay: CARM1 histone methyltransferase (biochemical) assay; settings: for IC50: 30 min preincubation, IC50 measured at 120 minutes
T1 construct: FLAG-CARM1 (amino acids 2–585)-His for biochemical studies was expressed in 293 F mammalian cells; made in house; host or cells: 293F mammalian cells
T1 sequence (Q86X55 2-585 isoform Q86X55-1): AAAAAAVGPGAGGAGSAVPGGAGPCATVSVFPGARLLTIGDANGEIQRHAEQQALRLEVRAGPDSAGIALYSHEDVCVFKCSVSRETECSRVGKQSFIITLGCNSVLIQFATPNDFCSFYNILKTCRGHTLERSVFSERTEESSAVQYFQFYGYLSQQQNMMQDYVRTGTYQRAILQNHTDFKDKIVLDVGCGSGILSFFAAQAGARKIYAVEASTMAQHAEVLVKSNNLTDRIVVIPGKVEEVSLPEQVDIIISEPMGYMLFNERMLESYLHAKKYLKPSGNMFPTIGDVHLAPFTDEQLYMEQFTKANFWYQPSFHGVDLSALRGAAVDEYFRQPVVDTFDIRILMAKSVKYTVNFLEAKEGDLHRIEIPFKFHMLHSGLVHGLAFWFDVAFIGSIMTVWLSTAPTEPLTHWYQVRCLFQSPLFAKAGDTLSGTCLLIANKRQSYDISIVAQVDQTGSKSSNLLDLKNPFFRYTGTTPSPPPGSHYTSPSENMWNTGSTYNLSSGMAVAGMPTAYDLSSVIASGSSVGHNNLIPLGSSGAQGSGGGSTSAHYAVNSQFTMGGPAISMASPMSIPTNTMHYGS
Procedure: CARM1 activity was measured as previously reported for the histone methyltransferases PRMT1/6/8[65] and PRMT5[58]. Briefly, CARM1 was preincubated with compounds for 30 minutes at room temperature before reactions were initiated. […] The assays were quenched by the addition of 300 μM unlabeled SAM. The quantity of ^3H-labeled peptide produced was measured by Flashplate on a Topcount reader. Further details can be found in the Supplementary Methods.
Histone methyltransferase assay
The compounds were preincubated with CARM1 for 30 minutes at room temperature before the reactions were initiated by the addition of substrates. […]
containing 20 mM bicine, 1 mM tris(2-carbox yethyl)phosphine, 0.005% bovine skin gelatin and 0.002% Tween-20, pH 7.5 and 2% DMSO. The peptide sequence was biotin-aminohexanoate- […]
eKS AP-amide, where RMe is a monomethylated arginine residue (21st
Century Biochemicals, Marlboro, MA). After 2 hours, assa ys were quenched b y the addition of 300 μM unlabeled SAM. The reactions were tran sferred to a 384-well Flashplate (Perkin Elmer) and the biotinylated peptides were allowed to bind to the streptavidin surface for at least 1 hour before being washed once with 0.1% Tween 20. The quantit y of 3H-labeled peptide bound to the Flashplate surface was counted on a Topcount reader as counts per minute (cpm). % Inhibition values wer e calculated and IC50 values were fit using the 3 -param eter IC50 equation below:
YY = BBBBBBBBBBBB + (100 − BBBBBBBBBBBB )HHHHHHHH CCCCCCCCCCHHCCHHCCCCCC where top is fixed at 100 or the maximum inhibition plateau , Y is % inhibition and X is […]
IC50 vs [peptide] data were fit to the noncom petitive Cheng- Prusoff […]
The effect of reaction time on compound potency was determined b y meas uring IC50 values from […]
to a one phase exponential deca y equation. […]
activity was measured under standard conditions after a 30 minute preincubation.
IC 50 values were d etermi ned and data wer e anal yz ed using the following eq uation: […]

[1] = Pharmacokinetic profiles in mice and rats; format: in vivo
[2] = tested on: asymmetric di-methyl PABP1 in RKO cells; assay: In cell western (ICW) assay for asymmetric di-methyl PABP1; settings: Homo sapiens, 48 h, read-out: CARM1 ICW IC50
Procedure: In cell w estern assay f or detection of asymmetric di -methyl PABP1 an d DNA content RKO cells (ATCC) were maintained in growth medium (DMEM/Glutamax medium supplemented with 10% v/v heat inactivated fetal bovine serum and 100 units/mL penicillin-streptom ycin) and cultured at 37 °C under 5% CO2. Cells were seeded in assay medium at a concentration of 30,000 cells per m L to a pol y -D-l ys ine coated 384 well culture plate with 50 µ L per well. Compound (100 nL) from a 96-well sou rce plate was add ed directl y to 384 well cell plate. Plates were incubated at 37°C, 5% CO2 for 48 hours. After two da ys of incubation, plates were brought to room temperature outside of the incubator for ten minutes and blotted on paper towels to remove cell media. Cells were fixed for 20 minutes atroom temperature b y adding 50 µl of 8% PFA followed by aspiration of supernatant. Cells were then permeabilized by addition of 50 µ L of i ce cold 100% methanol directl y to each well and incubated for 30 min at room temperature. After 30 min, plates were washed 2 times with 100 µL per well of wash buffer (1X PBS). Next 60 µL per well of Odysse y blocking buffer (Od ysse y Buffer wi th 0.1% Tween 20 (v/v)) were added to each plate and incubat ed 1 hour at room temperature. Blocking buffer was removed and 20 µ L per well of primar y antibod y was added (as ymmetric-methyl PABP1) diluted 1:400 in Odysse y buffer with 0.1% Tween 20 (v/v)) and plates were incubated overni ght (16 hours) at 4°C. Plates were washed 5 times wit h 100 µ L per well of wash buffer. Next 20 µL per well of secondar y ant ibody was added (1:800 800CW goat anti-rabbit IgG (H+L) antibod y, 1:2000 DRAQ5 in Odyss ey buffer with 0.1% Tween 20 (v/v)) and incubated for 1 hour at room temperature. The plates were washed 5 times wit h 100 µ L per well wash buffer then 2 times with 100 µ L per well of w ater . Plates were allowed to dr y at room temper ature t hen imag ed on the Lico r Od ysse y machine. The ratio of as ymmetri c di-methyl PABP1 to DR AQ5 was det ermined for each well and then used to determine percent i nhibition relative to DMSO control. IC 50 curves were generated us ing triplicate wells per concentration of compound.

[3] = tested on: 20 other diverse HMTs in the Epizyme enzyme panel; assay: Methyltransferase cross screening panel
[4] = tested on: PABP1, SmB, aDMA and histone H3 methylation in RPMI-8226 cells; assay: Western blot of cellular methyl marks, RPMI-8226; format: cell-based, human; settings: for IC50: Homo sapiens
[5] = read-out: CARM1 Biochemical IC50

Row | IC50 (CARM1; [5]) [nM] | IC50 [2] [nM] | IC50 (CARM1; read-out: CARM1 IC50) [nM] | fold more potent against CARM1 than compound 1 (CARM1) [fold] | selectivity for CARM1 over 20 other diverse HMTs [3] | biochemical potency against CARM1 compared with EZM2302 (CARM1) | IC50 ([4]; 96 h, RPMI-8226, four days, 0.0003 to 5 µM, read-out: IC50, SmBme0) [nM] | IC50 ([4]; RPMI-8226, 96 h treatment, read-out: IC50, methylation of PABP1 (PABP1me2a)) [nM] | Structure (SMILES) | pharmacokinetic profiles [1] | changes in methylation ([4]; RPMI-8226, four days)
1 | 3 | 11 |  |  |  |  |  |  | CNC[C@@H](O)COc1ccc(Cl)c(-c2nc(-c3c(C)noc3C)c(C)c(N3Cc4cnc(N5CCC5)nc4C3)n2)c1 [EPZ025654] | without satisfactory pharmacokinetic profiles | 
2 |  | > 20000 | 2300 ± 800 |  |  |  |  |  | Cn1cnc2ccc(-c3cccc(OCC(O)CN)c3)nc21 (stereo not drawn) [Compound 1] |  | 
3 | 46 ± 9 | 19000 |  | 50 | more than 100 fold |  |  |  | CC(C)n1ncc2c(N3CCOCC3)cc(-c3cccc(OCC(O)CN)c3)nc21 (stereo not drawn) [Compound 2] |  | 
4 | > 1000 | > 6500 |  |  |  | much weaker biochemical potency | > 5000 | > 5000 | CNC[C@@H](O)COc1cc(-c2nc(-c3c(C)noc3C)c(C)c(N3CC4(CCN(C(=O)OC)CC4)C3)n2)ccc1Cl [EPZ029751, methyl 2-(2-(4-chloro-3-((R)-2-hydroxy-3-(methylamino)propoxy)phenyl)-6-(3,5-dimethylisoxazol-4-yl)-5-methylpyrimidin-4-yl)-2,7-diazaspiro[3.5]nonane-7-carboxylate] |  | No robust changes in methylation
